Where a name gives a salt, the structure may show the parent alone.
System: IL-1β secretion, THP-1 cells
Test: IL-1β secretion assay in PMA-differentiated THP-1 cells stimulated with LPS and nigericin (ELISA readout)
Type: cell-based
Conditions: 25 ng/mL LPS then nigericin
How it was run: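 THP-1 cells differentiated with 5 ng/mL PMA for 40 h, primed in serum-free medium with 25 ng/mL LPS for 2 h, then compound (0.5% DMSO) for 1 h before nigericin for 2 h at 37°C. Supernatant IL-1β quantified by ELISA; normalized to high (LPS + 5 µM nigericin) and low (LPS only) controls.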

[1] = Homo sapiens, THP-1, inhibition of IL-1β secretion, class column of Table 3
[2] = Homo sapiens, THP-1, inhibition of IL-1β secretion, numeric column of Table 3

Row | IC50 [1] | IC50 [2] | IC50 (inhibition of IL-1β secretion, class column of Table 3) | IC50 (inhibition of IL-1β secretion, numeric column of Table 3) | SMILES
1 | < 10 µM | 0.764 µM | – | – | CCN1CCC[C@@H](NC(=O)Cn2nc(C(F)(F)F)c3cc(Br)ccc3c2=O)C1 [Example 89, 2-[6-bromo-1-oxo-4-(trifluoromethyl)phthalazin-2-yl]-N-[(3R)-1-ethylpiperidin-3-yl]acetamide]
2 | < 10 µM | 0.307 µM | – | – | N#Cc1cnc(NC(=O)Cn2nc(C(F)F)c3c(F)c(Br)ccc3c2=O)c(F)c1 [Example 28, 2-[6-bromo-4-(difluoromethyl)-5-fluoro-1-oxophthalazin-2-yl]-N-(5-cyano-3-fluoropyridin-2-yl)acetamide]
3 | < 10 µM | 0.515 µM | – | – | O=C(Cn1nc(OC2CC2)c2cc(C(F)(F)F)ccc2c1=O)Nc1ncc(F)cn1 [Example 174, 2-(4-cyclopropoxy-1-oxo-6-(trifluoromethyl)phthalazin-2(1H)-yl)-N-(5-fluoropyrimidin-2-yl)acetamide]
4 | < 10 µM | 2.32 µM | – | – | CC(F)(F)c1nn(CC(=O)Nc2ncncc2F)c(=O)c2ccc(Br)cc12 [Example 13, 2-[6-bromo-4-(1,1-difluoroethyl)-1-oxophthalazin-2-yl]-N-(5-fluoropyrimidin-4-yl)acetamide]
5 | < 10 µM | 4.76 µM | – | – | CCN1CCOCC(NC(=O)Cn2nc(C(C)C)c3cc(Br)ccc3c2=O)C1 (stereo not drawn) [Example 159, 2-(6-bromo-1-oxo-4-propan-2-ylphthalazin-2-yl)-N-(4-ethyl-1,4-oxazepan-6-yl)acetamide]
6 | < 10 µM | 1.78 µM | – | – | CC(C)c1nn(CC(=O)NC2CCC2)c(=O)c2ccc(Br)cc12 [Example 126, 2-(6-bromo-1-oxo-4-propan-2-ylphthalazin-2-yl)-N-cyclobutylacetamide]
7 | < 10 µM | 0.121 µM | – | – | CC(C)c1nn(CC(=O)Nc2ncncc2F)c(=O)c2ccc(Br)cc12 [Example 6, 2-(6-Bromo-4-isopropyl-1-oxophthalazin-2(1H)-yl)-N-(5-fluoropyrimidin-4-yl)acetamide]
8 | < 10 µM | 5.85 µM | – | – | N#C[C@H]1C[C@@H](Oc2nn(CC(=O)Nc3ncc(F)cn3)c(=O)c3ccc(Br)cc23)C1 [Example 171, 2-[6-bromo-4-(3-cis-cyanocyclobutyl)oxy-1-oxophthalazin-2-yl]-N-(5-fluoropyrimidin-2-yl)acetamide]
9 | < 10 µM | 1.12 µM | – | – | CC(C)c1nn(CC(=O)Nc2cnc(Cl)c(F)c2)c(=O)c2ccc(Br)cc12 [Example 112, 2-(6-bromo-1-oxo-4-propan-2-ylphthalazin-2-yl)-N-(6-chloro-5-fluoropyridin-3-yl)acetamide]
10 | < 10 µM | 1.32 µM | – | – | CO[C@H]1C[C@H](Oc2nn(CC(=O)Nc3ncc(F)cn3)c(=O)c3ccc(Br)cc23)C1 [Example 160]
11 | > 15 µM | > 50 µM | – | – | O=C(Cn1nc(C(F)(F)F)c2ccc(Br)cc2c1=O)Nc1ncncc1F [Example 132, 2-[7-bromo-1-oxo-4-(trifluoromethyl)phthalazin-2-yl]-N-(5-fluoropyrimidin-4-yl)acetamide]
12 | – | – | < 10 µM | 2.44 µM | CC(O)c1nn(CC(=O)Nc2ncccn2)c(=O)c2ccc(Br)cc12 (single isomer, unassigned) [Example 102, 2-(6-bromo-4-(1-hydroxyethyl)-1-oxophthalazin-2(1H)-yl)-N-(pyrimidin-2-yl)acetamide]
13 | < 10 µM | 0.61 µM | – | – | CCN1CCC[C@@H](NC(=O)Cn2nc(C(C)C)c3cc(Cl)ccc3c2=O)C1 [Example 79, 2-(6-chloro-1-oxo-4-propan-2-ylphthalazin-2-yl)-N-[(3R)-1-ethylpiperidin-3-yl]acetamide]
14 | < 10 µM | 0.952 µM | – | – | CC(C)c1nn(CC(=O)Nc2cccnn2)c(=O)c2ccc(Br)cc12 [Example 70, 2-(6-bromo-1-oxo-4-propan-2-ylphthalazin-2-yl)-N-pyridazin-3-ylacetamide]
15 | < 10 µM | 0.943 µM | – | – | CC(C)c1nn(CC(=O)Nc2ccc3cnn(C)c3c2)c(=O)c2ccc(Br)cc12 [Example 61, 2-(6-bromo-1-oxo-4-propan-2-ylphthalazin-2-yl)-N-(1-methylindazol-6-yl)acetamide]
16 | < 10 µM | 1.03 µM | – | – | CC(C)c1nn(CC(=O)N[C@@H]2CCCN(CC(F)(F)F)C2)c(=O)c2ccc(Br)cc12 [Example 7, (R)-2-(6-Bromo-4-isopropyl-1-oxophthalazin-2(1H)-yl)-N-(1-(2,2,2-trifluoroethyl)piperidin-3-yl)acetamide]
17 | < 10 µM | 1.51 µM | – | – | CO[C@H]1C[C@H](NC(=O)Cn2nc(C(C)C)c3cc(Br)ccc3c2=O)C1 [Example 78, 2-(6-bromo-1-oxo-4-propan-2-ylphthalazin-2-yl)-N-(3-trans-methoxycyclobutyl)acet amide]
18 | < 10 µM | 0.403 µM | – | – | CO[C@H]1C[C@@H](Oc2nn(CC(=O)Nc3ncc(F)cn3)c(=O)c3ccc(Br)cc23)C1 [Example 172, 2-[6-bromo-4-(3-cis-methoxycyclobutyl)oxy-1-oxophthalazin-2-yl]-N-(5-fluoropyrimidin-2-yl)acetamide]

Row | IC50 [1] | IC50 [2] | IC50 (inhibition of IL-1β secretion, class column of Table 3) | IC50 (inhibition of IL-1β secretion, numeric column of Table 3) | SMILES
19 | > 15 µM | 32 µM | – | – | CC(F)c1nn(CC(=O)Nc2ncccn2)c(=O)c2cc(Br)ccc12 (stereo not drawn) [Example 81, 2-[7-bromo-4-(1-fluoroethyl)-1-oxo-phthalazin-2-yl]-N-pyrimidin-2-yl-acetamide]
20 | < 10 µM | 1.83 µM | – | – | CCN1CCC[C@@H](NC(=O)Cn2nc(C(C)C)c3cc(C)ccc3c2=O)C1 [Example 4]
21 | < 10 µM | 0.782 µM | – | – | CSc1nn(CC(=O)Nc2ncc(F)cn2)c(=O)c2ccc(Br)cc12 [Example 149, 2-(6-bromo-4-methylsulfanyl-1-oxophthalazin-2-yl)-N-(5-fluoropyrimidin-2-yl)acetamide]
22 | < 10 µM | 0.018 µM | – | – | CC(C)c1nn(CC(=O)Nc2ncncc2F)c(=O)c2ccc(I)cc12 [Example 20, N-(5-fluoropyrimidin-4-yl)-2-(6-iodo-1-oxo-4-propan-2-ylphthalazin-2-yl)acetamide]
23 | < 10 µM | 0.529 µM | – | – | CC(C)c1nn(CC(=O)Nc2ncccc2F)c(=O)c2ccc(Br)cc12 [Example 35, 2-(6-bromo-1-oxo-4-propan-2-ylphthalazin-2-yl)-N-(3-fluoropyridin-2-yl)acetamide]
24 | < 10 µM | 6.05 µM | – | – | O=C(Cn1nc(C(F)F)c2ccc(Br)cc2c1=O)Nc1ncccn1 [Example 94, 2-[7-bromo-4-(difluoromethyl)-1-oxo-phthalazin-2-yl]-N-pyrimidin-2-yl-acetamide]
25 | < 10 µM | 0.235 µM | – | – | CC(C)c1nn(CC(=O)Nc2ccncc2F)c(=O)c2ccc(Br)cc12 [Example 8, 2-(6-Bromo-4-isopropyl-1-oxophthalazin-2(1H)-yl)-N-(3-fluoropyridin-4-yl)acetamide]
26 | < 10 µM | 2.55 µM | – | – | CC(C)c1nn(CC(=O)NC2CCc3nncn3C2)c(=O)c2ccc(Br)cc12 (stereo not drawn) [Example 47, 2-(6-bromo-1-oxo-4-propan-2-ylphthalazin-2-yl)-N-(5,6,7,8-tetrahydro-[1,2,4]triazolo[4,3-a]pyridin-6-yl)acetamide]
27 | < 10 µM | 0.186 µM | – | – | O=C(Cn1nc(OCF)c2cc(Br)ccc2c1=O)Nc1ncc(F)cn1 [Example 137, 2-[6-bromo-1-oxo-4-(fluoromethoxy)phthalazin-2-yl]-N-(5-fluoropyrimidin-2-yl)acetamide]
28 | < 10 µM | 20.1 µM | – | – | CC(C)c1nn(CC(=O)NCc2ccccc2)c(=O)c2ccc(Br)cc12 [Example 129, N-benzyl-2-(6-bromo-1-oxo-4-propan-2-ylphthalazin-2-yl)acetamide]
29 | < 10 µM | 8.23 µM | – | – | CC(C)c1nn(CC(=O)NCC2CCCN2)c(=O)c2ccc(Br)cc12 (stereo not drawn) [Example 108, 2-(6-bromo-1-oxo-4-propan-2-ylphthalazin-2-yl)-N-(pyrrolidin-2-ylmethyl)acetamide HCl salt]
30 | < 10 µM | 4.86 µM | – | – | CN(C)c1ccc2c(=O)n(CC(=O)Nc3ncc(F)cn3)nc(Br)c2c1 [Example 180, 2-[4-bromo-6-(dimethylamino)-1-oxophthalazin-2-yl]-N-(5-fluoropyrimidin-2-yl)acetamide]
31 | < 10 µM | 9.04 µM | – | – | CC(C)c1nn(CC(=O)NC(C)c2ccccc2)c(=O)c2ccc(Br)cc12 (stereo not drawn) [Example 72, 2-(6-bromo-1-oxo-4-propan-2-ylphthalazin-2-yl)-N-(1-phenylethyl)acetamide]
32 | < 10 µM | 0.173 µM | – | – | Cc1cnc(NC(=O)Cn2nc(OC3CC3)c3cc(Br)ccc3c2=O)nc1 [Example 152]
33 | < 10 µM | 4.09 µM | – | – | CC(C)c1nn(CC(=O)Nc2cnn(C3CCC3)c2)c(=O)c2ccc(Br)cc12 [Example 48, 2-(6-bromo-1-oxo-4-propan-2-ylphthalazin-2-yl)-N-(1-cyclobutylpyrazol-4-yl)acetamide]
34 | < 10 µM | 0.71 µM | – | – | CC(C)c1nn(CC(=O)Nc2cccnc2)c(=O)c2ccc(Br)cc12 [Example 55, 2-(6-bromo-1-oxo-4-propan-2-ylphthalazin-2-yl)-N-pyridin-3-ylacetamide]
35 | < 10 µM | 5.95 µM | – | – | CC(C)Oc1nn(CC(=O)Nc2ncc(F)cn2)c(=O)c2ccc(Br)cc12 [Example 155, 2-(6-bromo-1-oxo-4-propan-2-yloxyphthalazin-2-yl)-N-(5-fluoropyrimidin-2-yl)acetamide]
36 | < 10 µM | 5.81 µM | – | – | CCN1CCCC1CNC(=O)Cn1nc(C(C)C)c2cc(Br)ccc2c1=O (stereo not drawn) [Example 109, 2-(6-bromo-1-oxo-4-propan-2-ylphthalazin-2-yl)-N-[(1-ethylpyrrolidin-2-yl)methyl]acetamide]

Source: US20230357162A1, “COMPOUNDS, COMPOSITIONS AND METHODS” (Denali Therapeutics Inc., priority 2020, published 2023)
